From ChEMBL document CHEMBL5346978, “Exploration of Tetrahydroisoquinoline- and Benzo[c]azepine-Based Sphingosine 1-Phosphate Receptor 1 Agonists for the Treatment of Multiple Sclerosis” (J Med Chem, 2023) come the findings set out here.

Data set [1] can be described thus: Microsomal stability in human liver microsomes assessed as parent compound remaining preincubated for 5 mins followed by NADPH addition measured after 30 mins by LC-MS/MS analysis. Format: ADME, Microsome. Particulars: time 35 min, read-out: Stability.
Data set [2] has as its target T1, Sphingosine 1-phosphate receptor 1 (Homo sapiens, UniProt P21453). The data set is described as follows: Agonist activity at S1P1 (unknown origin) expressed in PathHunter CHO-K1 EDG1 beta-arrestin cells assessed as beta-arrestin2 recruitment incubated for 90 mins by chemiluminescence based assay. Format: functional, cell-based.
Data set [3] deals with T1, Sphingosine 1-phosphate receptor 1. The data set is described as follows: Agonist activity at S1P1 (unknown origin) expressed in human HEK293/Galpha15 cells assessed as Ca2+ activation at 1 uM measured for 2 hrs by FLIPR analysis relative to control. Format: functional, cell-based.
Data set [4] can be described thus: Microsomal stability in mouse liver microsomes assessed as parent compound remaining preincubated for 5 mins followed by NADPH addition measured after 30 mins by LC-MS/MS analysis. Format: ADME, Microsome. The conditions noted are these: time 35 min, read-out: Stability.
Data set [5] addresses T1, Sphingosine 1-phosphate receptor 1. The data set is described as follows: Agonist activity at S1P1 (unknown origin) expressed in PathHunter CHO-K1 EDG1 beta-arrestin cells assessed as beta-arrestin2 recruitment at 1 uM incubated for 90 mins by chemiluminescence based assay relative to control. Format: functional, cell-based. The conditions noted are these: filed as agonist.

The nature of data set [6]: Microsomal stability in rat liver microsomes assessed as parent compound remaining preincubated for 5 mins followed by NADPH addition measured after 30 mins by LC-MS/MS analysis. The class given is ADME, Microsome. The conditions noted are these: time 35 min, read-out: Stability.
For the next data set, the target named is CYP2C9 (Homo sapiens, UniProt P11712). The data set can be described thus: Inhibition of CYP2C9 in human liver microsomes using diclofenac as substrate assessed as residual activity at 10 uM preincubated for 5 mins followed by substrate addition and measured after 15 mins in presence of NADPH by LC-MS/MS analysis. Format: ADME, Microsome. The conditions noted are these: probe diclofenac, time 20 min, read-out: Activity.

For data set [7], the target named is T1, Sphingosine 1-phosphate receptor 1. The data set is described as follows: Agonist activity at S1P1 (unknown origin) expressed in human HEK293/Galpha15 cells assessed as Ca2+ activation measured for 2 hrs by FLIPR analysis. Format: functional, cell-based.
Another data set concerns the target T2, CYP1A2 (Homo sapiens, UniProt P05177).
T2 sequence (P05177 whole entry): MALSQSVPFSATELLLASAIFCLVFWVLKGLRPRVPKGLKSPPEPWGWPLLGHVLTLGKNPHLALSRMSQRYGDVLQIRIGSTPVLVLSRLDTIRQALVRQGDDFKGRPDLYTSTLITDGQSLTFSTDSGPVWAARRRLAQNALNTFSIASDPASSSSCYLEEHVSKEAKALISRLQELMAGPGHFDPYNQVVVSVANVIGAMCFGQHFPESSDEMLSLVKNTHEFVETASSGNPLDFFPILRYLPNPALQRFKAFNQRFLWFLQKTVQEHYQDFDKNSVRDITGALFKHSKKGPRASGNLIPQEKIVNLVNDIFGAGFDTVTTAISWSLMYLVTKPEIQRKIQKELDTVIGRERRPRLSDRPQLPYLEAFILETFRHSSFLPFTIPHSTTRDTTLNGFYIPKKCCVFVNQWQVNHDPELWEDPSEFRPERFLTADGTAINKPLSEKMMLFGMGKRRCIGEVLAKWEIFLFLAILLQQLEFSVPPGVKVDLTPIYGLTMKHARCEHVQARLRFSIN
The data set is described as follows: Inhibition of CYP1A2 in human liver microsomes using phenacetin as substrate assessed as residual activity at 10 uM preincubated for 5 mins followed by substrate addition and measured after 15 mins in presence of NADPH by LC-MS/MS analysis. Format: ADME, Microsome. Particulars: probe phenacetin, time 20 min, read-out: Activity.

Data set [8] can be described thus: Microsomal stability in rat liver microsomes assessed as parent compound remaining preincubated for 5 mins followed by NADPH addition measured after 60 mins by LC-MS/MS analysis. Format: ADME, Microsome. The conditions noted are these: time 65 min, read-out: Stability.
Data set [9] can be described thus: Microsomal stability in mouse liver microsomes assessed as parent compound remaining preincubated for 5 mins followed by NADPH addition measured after 60 mins by LC-MS/MS analysis. The class given is ADME, Microsome. The conditions noted are these: time 65 min, read-out: Stability.
The target of a further data set is CYP2D6 (Homo sapiens, UniProt P10635). The data set is described as follows: Inhibition of CYP2D6 in human liver microsomes using dextromethorphan as substrate assessed as residual activity at 10 uM preincubated for 5 mins followed by substrate addition and measured after 15 mins in presence of NADPH by LC-MS/MS analysis. The class given is ADME, Microsome. The conditions noted are these: probe dextromethorphan, time 20 min, read-out: Activity.

In a further data set the target is CYP3A4 (Homo sapiens, UniProt P08684). The data set can be described thus: Inhibition of CYP3A4 in human liver microsomes using midazolam as substrate assessed as residual activity at 10 uM preincubated for 5 mins followed by substrate addition and measured after 15 mins in presence of NADPH by LC-MS/MS analysis. Format: ADME, Microsome. Particulars: probe midazolam, time 20 min, read-out: Activity.

Data set [10] is described as follows: Microsomal stability in human liver microsomes assessed as parent compound remaining preincubated for 5 mins followed by NADPH addition measured after 60 mins by LC-MS/MS analysis. Format: ADME, Microsome. The conditions noted are these: time 65 min, read-out: Stability.

Sequence of CYP2D6 (P10635 whole entry): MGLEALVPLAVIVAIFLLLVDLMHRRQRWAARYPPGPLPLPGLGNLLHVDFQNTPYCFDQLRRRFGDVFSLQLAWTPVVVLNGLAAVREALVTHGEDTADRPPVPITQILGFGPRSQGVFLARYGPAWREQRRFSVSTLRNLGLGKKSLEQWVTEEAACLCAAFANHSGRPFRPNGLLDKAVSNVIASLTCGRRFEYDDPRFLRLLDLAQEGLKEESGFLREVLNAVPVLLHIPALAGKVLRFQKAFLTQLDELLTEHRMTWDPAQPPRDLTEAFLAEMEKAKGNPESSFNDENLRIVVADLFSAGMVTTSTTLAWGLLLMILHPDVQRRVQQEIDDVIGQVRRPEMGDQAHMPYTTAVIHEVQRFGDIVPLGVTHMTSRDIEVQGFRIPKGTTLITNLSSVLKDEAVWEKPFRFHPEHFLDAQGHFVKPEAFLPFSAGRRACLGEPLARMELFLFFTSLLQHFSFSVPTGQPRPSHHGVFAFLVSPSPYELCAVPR
T1 sequence (P21453 whole entry): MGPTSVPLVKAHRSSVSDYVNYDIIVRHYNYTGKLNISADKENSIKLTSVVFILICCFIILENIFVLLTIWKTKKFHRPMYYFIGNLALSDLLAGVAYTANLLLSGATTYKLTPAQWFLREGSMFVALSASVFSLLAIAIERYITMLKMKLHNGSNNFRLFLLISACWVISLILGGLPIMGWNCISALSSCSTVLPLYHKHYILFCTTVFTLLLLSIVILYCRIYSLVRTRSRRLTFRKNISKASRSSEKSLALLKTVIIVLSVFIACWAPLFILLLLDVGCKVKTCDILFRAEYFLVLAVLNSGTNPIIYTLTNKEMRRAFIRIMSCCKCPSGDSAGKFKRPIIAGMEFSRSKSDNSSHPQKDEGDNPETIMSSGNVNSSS
Sequence of CYP2C9 (P11712 whole entry): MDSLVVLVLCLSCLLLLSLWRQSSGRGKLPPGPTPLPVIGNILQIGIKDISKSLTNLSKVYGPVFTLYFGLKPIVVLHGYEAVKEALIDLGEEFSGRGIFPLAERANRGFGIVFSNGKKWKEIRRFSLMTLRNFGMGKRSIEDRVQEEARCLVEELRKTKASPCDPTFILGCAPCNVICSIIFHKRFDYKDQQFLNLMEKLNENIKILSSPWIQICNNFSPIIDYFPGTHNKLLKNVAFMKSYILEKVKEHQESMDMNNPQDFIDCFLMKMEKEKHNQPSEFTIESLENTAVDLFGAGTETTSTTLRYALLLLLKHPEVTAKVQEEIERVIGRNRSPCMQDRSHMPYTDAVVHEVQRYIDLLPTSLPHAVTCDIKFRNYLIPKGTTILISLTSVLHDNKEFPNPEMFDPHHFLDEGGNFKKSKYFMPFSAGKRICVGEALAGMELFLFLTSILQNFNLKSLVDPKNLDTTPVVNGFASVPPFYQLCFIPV
Sequence of CYP3A4 (P08684 whole entry): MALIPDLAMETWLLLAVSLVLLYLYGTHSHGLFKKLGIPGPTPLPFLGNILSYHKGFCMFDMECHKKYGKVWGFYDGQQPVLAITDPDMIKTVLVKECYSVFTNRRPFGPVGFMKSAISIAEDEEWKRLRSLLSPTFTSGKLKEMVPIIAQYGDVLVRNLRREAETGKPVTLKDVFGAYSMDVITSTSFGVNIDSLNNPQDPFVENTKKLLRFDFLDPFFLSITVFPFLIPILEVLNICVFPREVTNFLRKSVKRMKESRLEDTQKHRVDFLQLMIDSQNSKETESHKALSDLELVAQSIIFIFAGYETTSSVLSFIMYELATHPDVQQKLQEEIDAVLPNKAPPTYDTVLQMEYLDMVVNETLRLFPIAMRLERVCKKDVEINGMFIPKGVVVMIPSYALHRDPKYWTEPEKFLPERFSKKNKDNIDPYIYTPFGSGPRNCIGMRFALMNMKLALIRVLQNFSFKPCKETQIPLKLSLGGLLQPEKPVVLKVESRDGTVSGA

Turning to `CC(C)Oc1ccc(COc2ccc3c(c2)CCN(C(=O)CCC(=O)N(C)C)C3)cc1C#N`, the remaining at 0.5 h in data set [1] is 24.4%; in data set [4], 11.4%; in data set [6] it was 13.9%. The EC50 in data set [2] was 0.567 µM. Moreover, the Activity in data set [3] was found to be 25%; in data set [5], 76%.
With `CC(C)Oc1ccc(COc2ccc3c(c2)OCCN(S(=O)(=O)CCC(=O)O)C3)cc1C#N`, the activity at 0.25 h, 10 µM amounted to 70.7% on CYP2C9, 71.2% on CYP1A2, 73.6% on CYP2D6 and 68.8% at CYP3A4. For the same compound, the EC50 in data set [7] was 0.068 µM; in [2] it was 0.0286 µM. Also, the Activity in [3] (filed as agonist) came out at 83%; in data set [5], 109%. The remaining at 1 h was determined as 92.9% in data set [8] and 90.5% in data set [9].
For `CC(C)Oc1ccc(COc2ccc3c(c2)OCCN(S(=O)(=O)CCCO)C3)cc1C#N`, the activity at 0.25 h, 10 µM amounted to 57.2% on CYP2C9, 70.2% on CYP1A2, 75.6% at CYP2D6 and 92.7% on CYP3A4. The remaining at 1 h in data set [10] was 17.5%; in data set [8], 6.8%; in data set [9], 9.3%. For the same compound, in [2], the EC50 was 0.0737 µM. The Activity in data set [3] (filed as agonist) is 46%; in data set [5], 92%.
`CC(C)Oc1ccc(COc2ccc3c(c2)CCCN(S(=O)(=O)CCCO)C3)cc1C#N`: the activity at 0.25 h, 10 µM on CYP2C9 was 67.7%; on CYP1A2, 100%; at CYP2D6, 89.4%; at CYP3A4 it was 82.4%. The results for the remaining at 1 h in data set [10], in data set [8] and in data set [9] were 16.2%, 113% and 8.7%, respectively. Also, the EC50 stood at 0.502 µM in data set [7] and 0.0947 µM in [2]. In addition, the Activity in data set [3] (filed as agonist) amounted to 69%; in data set [5], 81%.
As to `CC(C)Oc1ccc(COc2ccc3c(c2)CCN(C(=O)CCNS(C)(=O)=O)C3)cc1C#N`, the figures for the remaining at 0.5 h in data set [1], in [4] and in data set [6] were 29.7%, 42.8% and 41.7%, respectively. Further, the EC50 in [2] came out at 0.253 µM. For the same compound, the figures for the Activity in data set [3] and in [5] were 23% and 122%, respectively.
For the compound `CC(C)Oc1ccc(COc2ccc3c(c2)OCCN(S(=O)(=O)CC(=O)O)C3)cc1C#N`, the activity at 0.25 h, 10 µM on CYP2C9 turned out to be 87%; on CYP1A2 it was 88.1%; at CYP2D6 it was 91.1%; on CYP3A4, 84.6%. Further, the remaining at 1 h in data set [10] amounted to 97.1%; in data set [8], 99.6%; in data set [9] it was 87.7%. Also, the results for the EC50 in [7] and in data set [2] were 0.067 µM and 0.0505 µM, respectively. Also, the Activity turned out to be 104% in data set [3] (filed as agonist) and 91% in [5].
With `CC(C)Oc1ccc(COc2ccc3c(c2)CCCN(S(=O)(=O)CC(=O)O)C3)cc1C#N`, the activity at 0.25 h, 10 µM at CYP2C9 was found to be 86.1%; at CYP1A2, 86.9%; on CYP2D6, 89.4%; at CYP3A4, 87.7%. In addition, the remaining at 1 h in data set [10] turned out to be 90.9%; in [8] it was 73.6%; in data set [9], 85.1%. Besides, the results for the EC50 in data set [7] and in data set [2] were 0.0463 µM and 0.0253 µM, respectively. The Activity in [3] (filed as agonist) and in data set [5] was 94% throughout.
`CC(C)Oc1ccc(COc2ccc3c(c2)CCCN(S(=O)(=O)CCO)C3)cc1C#N`: the activity at 0.25 h, 10 µM was determined as 53.7% at CYP2C9, 85.1% at CYP1A2, 79.1% on CYP2D6 and 84.7% on CYP3A4. In addition, the remaining at 1 h was determined as 15.2% in data set [10], 13.1% in [8] and 10.7% in [9]. Also, the EC50 in data set [7] turned out to be 0.618 µM; in [2], 0.0111 µM. Besides, the Activity in data set [3] (filed as agonist) came out at 68%; in data set [5], 116%.
In the case of `CC(C)Oc1ccc(COc2ccc3c(c2)CCN(CCC(=O)O)C3)cc1C#N`, the activity at 0.25 h, 10 µM worked out at 92.2% at CYP2C9, 85.1% on CYP1A2, 95.4% at CYP2D6 and 90.2% on CYP3A4. For the same compound, the EC50 in data set [7] came to 0.247 µM; in data set [2], 0.193 µM. The remaining at 0.5 h in [1] was 99%; in data set [4] it was 98.7%. Besides, the Activity in data set [3] (filed as agonist) was 82%; in [5] it was 98%.
As to `CC(C)Oc1ccc(COc2ccc3c(c2)CCN(S(=O)(=O)CCC(=O)O)C3C)cc1C#N` (stereo not given), the activity at 0.25 h, 10 µM came to 78.4% on CYP2C9, 93.2% on CYP1A2, 87.6% on CYP2D6 and 92% at CYP3A4. The remaining at 1 h in data set [10] stood at 100%; in data set [8] it was 90.8%; in [9], 89.7%. In addition, the EC50 in data set [2] turned out to be 0.795 µM. Further, the Activity in data set [3] came to 8%; in data set [5], 77%.
In the case of `CC(C)Oc1ccc(COc2ccc3c(n2)CCN(S(=O)(=O)CCC(=O)O)C3)cc1C#N`, the activity at 0.25 h, 10 µM at CYP2C9 is 80.1%; at CYP1A2, 84.5%; at CYP2D6, 85.3%; at CYP3A4, 85.4%. Besides, the EC50 in data set [7] was 0.226 µM; in data set [2] it was 0.289 µM. For the same compound, the remaining at 0.5 h came to 96% in data set [1], 94.2% in data set [4] and 98.1% in data set [6]. The Activity in [3] (filed as agonist) and in data set [5] was 82% throughout.
`CNC(=O)CCS(=O)(=O)N1CCc2cc(OCc3ccc(OC(C)C)c(C#N)c3)ccc2C1`: the remaining at 0.5 h in [1] worked out at 21.9%; in data set [4] it was 15.8%; in [6], 13.4%. For the same compound, in [2], the EC50 was 0.362 µM. The Activity was determined as 4% in [3] and 107% in [5].
Take `CC(C)Oc1ccc(COc2ccc3c(c2)CCN(S(=O)(=O)CCC(=O)N(C)C)C3)cc1C#N`: the remaining at 0.5 h in [1] stood at 18.9%; in data set [4], 14.1%; in data set [6] it was 18.7%. For the same compound, the EC50 in data set [2] amounted to 0.453 µM. Besides, the results for the Activity in data set [3] and in data set [5] were 4% and 98%, respectively.
`CC(C)Oc1ccc(COc2ccc3c(c2)CCN(C(=O)CCC(=O)O)C3)cc1C#N`: the activity at 0.25 h, 10 µM on CYP2C9 is 27.6%; on CYP1A2, 59.7%; at CYP2D6 it was 54.9%; at CYP3A4 it was 26.3%. Besides, the values for the EC50 in data set [7] and in data set [2] were 0.275 µM and 0.455 µM, respectively. The figures for the remaining at 0.5 h in data set [1], in data set [4] and in [6] were 94.3%, 100% and 92.1%, respectively. Also, the Activity in data set [3] (filed as agonist) is 79%; in data set [5], 81%.
